Experimental data as given in PubChem BioAssay AID2305 (GlaxoSmithKline (GSK), 2010).
Where “and” joins values, the source holds several entries; their conditions need not be identical. Equal entries are not always repeated.

What follows are compounds tested on P. falciparum 3D7 growth, pLDH absorbance (assay: blood-stage malaria parasite growth potency – strain 3D7, dose response (AID 2305)).

Structure (SMILES)	IC50
OC1(Cc2ccccc2)CCN(Cc2cccc(-c3c[nH]c4nc(NC5CCCC5)ncc34)c2)CC1	930 nM
CCN(CC)CCN(Cc1ccc(-c2ccc(C(F)(F)F)cc2)cc1)C(=O)Cn1c(SCc2ccc(F)cc2)cc(=O)c2ccccc21	750 nM
Cc1cc(NCc2ccccc2)nc2cc(O)ccc12	780 nM
Cc1ccc(CC(C)NCC(O)c2cccc(Br)c2)cc1 (stereo not given)	800 nM
CC1(C)N=C(N)N=C(N)N1OCc1cc(Cl)c(Cl)cc1CON1C(N)=NC(N)=NC1(C)C	10 nM
COc1ccc2nc(N(CCCn3ccnc3)C(=O)C=Cc3cccs3)sc2c1	1050 nM
COc1ccc2ccc(F)c(CCN3CCC(NCc4cc5c(cn4)OCCO5)CC3)c2n1	840 nM
CCn1cnc2c(Nc3cccc([N+](=O)[O-])c3)nc(N3CCC(N4CCCCC4)CC3)nc21	950 nM
CN(C)c1cccc2c1nc(-c1ccco1)n2CCNCc1ccccc1	810 nM
COc1cc2nccc(Nc3ccc(Oc4ccccc4)cc3)c2cc1OC	680 nM
CC(=O)C1(c2ccccc2)CCN(CCC2(c3ccc(Cl)c(Cl)c3)CN(C(=O)Nc3cc(F)cc(F)c3)CCO2)CC1 (stereo not given)	1480 nM
COc1ccc(CCNC(=O)c2cnc3c(c2)nc(-c2cnc(-c4ccccc4)[nH]2)n3CCc2cnc[nH]2)cc1	970 nM
CN(C)CCNC(=O)c1csc(Nc2ccc(Cl)c(Cl)c2)n1	220 nM
CN(c1cc(NC(=O)c2cccs2)ccn1)C1CCN(Cc2cccc(F)c2)CC1	680 nM
CCOc1cc(C(=O)Nc2cccnc2)cc(Br)c1OCCC(C)C	1080 nM
CCCCc1ccc(-c2nc(NC(=O)Nc3nc(-c4ccccc4)[nH]c3C(=O)OCC)c(C(=O)OCC)[nH]2)cc1	750 nM
CN1CCC(NCc2cccc(-c3ccc(S(=O)(=O)NCCc4ccccn4)cc3)c2)CC1	830 nM
CO/N=C(\C)c1ccc2c(c1)CCN(CCC1CCC(NC(=O)/C=C/c3ccc(F)cc3)CC1)CC2 (stereo not given)	1070 nM
C/C=C1\CN2CC[C@H]1C[C@H]2[C@H](O)c1ccnc2ccc(OC)cc12	220 nM and 320 nM
CCNC(=O)Nc1cccc(-c2cccc(-c3nc4ccc(C(F)(F)F)cc4[nH]3)c2)c1	680 nM
O=C(/C=C/c1ccc(Cl)c(Cl)c1)NC1CCC(CN2CCC(Cc3c[nH]c4ccccc34)CC2)CC1 (stereo not given)	890 nM
COc1ccc(CNCc2ccc(F)cc2)cc1-c1ccc(OC)c(S(=O)(=O)NCCN2CCCC2)c1	790 nM
O=C(NCCCCN1CCC(c2ccc3c(c2OCCO)CCCC3)CC1)c1ccc2oc(-c3ccc(C(F)(F)F)cc3)cc2c1	340 nM
c1ccc(CNc2nc(NCCN3CCCCC3)nc3ccccc23)cc1	1020 nM

Structure (SMILES)	IC50
COc1ccc(-c2cccc(NC(=O)c3cccc(C#N)c3)c2)cc1CN1CCN(C)CC1	930 nM
COc1cc(F)c2ncc(Cl)c([C@H](O)CN3CCC(NCc4cc5c(cn4)OCCO5)CC3)c2c1	100 nM
O=C(/C=C/c1ccc(Cl)c(Cl)c1)NCCCCCN1CCC(NC(=O)NC2CCCCC2)CC1	560 nM
COc1ccc2nccc(NN=Cc3ccccc3)c2c1	110 nM
Cc1ccccc1C1CCN(C2CCC(NC(=O)/C=C/c3ccc(C(F)(F)F)cc3)CC2)CC1 (stereo not given)	1040 nM
CC(=O)Nc1cccc(C(=O)Nc2cccc(-c3ccc(-c4nc5ccc(F)cc5[nH]4)cc3)c2)c1	760 nM
COc1ccc2c(c1)Sc1ccccc1C(N1CCN(CCO)CC1)C2 (stereo not given)	1390 nM
Cc1cc(NCCC(=O)Nc2ccccc2)nc(NCCc2ccccc2)n1	850 nM
COc1cc2cc(-c3nc4ccccc4[nH]3)c(N)nc2cc1OC	170 nM
COc1c(C2CCN(CCCCNC(=O)c3ccc(-c4ccc(NC(=O)C(F)(F)F)cc4)cc3)CC2)ccc2c1CCCC2	1000 nM
CC(=O)Nc1nc(C(=O)Nc2ccc(-c3cccc(-c4nc5ccc(F)cc5[nH]4)c3)cc2)cs1	290 nM
CC(C)(C)c1ccc(NC(=O)c2cccc(CN3CCCN(Cc4cccc(Cl)c4)CC3)c2)cc1	1000 nM
CC12CN3CC(C)(CN(C1)C3c1cc(Br)ccc1O)C2O (stereo not given)	230 nM
COc1ccc2nccc([C@@H](O)CN3CCC(NC(=O)c4[nH]c5ccccc5c4-c4ccccc4)CC3)c2c1	900 nM
CCCCOC(=O)c1ccc(NC(=O)Nc2ccc(Cn3ncc(N4CCCNCC4)c(Cl)c3=O)cc2)cc1	740 nM
O=C(/C=C/c1ccc(Cl)c(Cl)c1)NCCCCCN1CCC(NS(=O)(=O)c2cc(Cl)cc(Cl)c2)CC1	1240 nM
Cc1ccc(Cn2ncc(N3CCCNCC3)c(Cl)c2=O)cc1NC(=O)Nc1ccc(-c2ccccc2)cc1	630 nM
CN1CCN(c2ccnc3ccc(NC(=O)Nc4c(Cl)cccc4Cl)cc23)CC1	880 nM
CN(C)CCCNc1ncnc2c1[nH]c1ccc(F)cc12	730 nM
COc1ccc(C(=O)Nc2ccc3nc(N4CCCCC4)cc(C)c3c2)cc1OC	990 nM
c1ccc2cc3c(Nc4ccc(N5CCCCCC5)cc4)ccnc3cc2c1	940 nM
O=C(COc1ccccc1Cc1ccccc1)Nc1cc(Cl)ccc1-n1cncn1	640 nM
Cc1cc(NC(=O)NCCN2CCC(NS(=O)(=O)c3ccc(C(F)(F)F)cc3)C2)c2ccccc2n1 (stereo not given)	650 nM
Cc1ccccc1C1CCN(C2CCC(NC(=O)c3ccc(-c4cccs4)s3)CC2)CC1 (stereo not given)	1030 nM

Structure (SMILES)	IC50
Brc1cnc(NC2=NCCN2)c(Br)c1	340 nM
COC(=O)c1sc2ccccc2c1NC(=O)c1ccc(C)c(C)c1	1070 nM
COc1cc2nc(N3CCC(CNC(=O)c4cccc5cccnc45)CC3)nc(N)c2cc1OC	1700 nM
Cc1cccc2[nH]c(-c3ccc(-c4ccc(CN5CCC(CCN6CCCCC6)CC5)cc4)cc3)nc12	140 nM
CN1CCN(CC(=O)Nc2ccc(-c3cccc(-c4nc5ccc(C(F)(F)F)cc5[nH]4)c3)cc2)CC1	400 nM
COc1cccc2cc(C(=O)N[C@@H](CC(C)C)C(=O)NC3CC[C@@H](C)N(C(=O)Nc4ccncc4)CC3=O)oc12 (stereo not given in full)	290 nM
Cn1cnc(-c2ccc3c(c2)CCN(CCC2CCC(NC(=O)/C=C/c4ccc(F)cc4)CC2)CC3)c1 (stereo not given)	900 nM
CCC(=O)N1CCc2cc(Br)cc(S(=O)(=O)N3CC(C)CC(C)C3)c21 (stereo not given)	930 nM
CN1CCC(C(=O)Nc2ccc(-c3ccc(-c4nc5ccc(C(F)(F)F)cc5[nH]4)s3)cc2)CC1	990 nM
O=C(Cn1c(CCc2cccc(F)c2F)nc(=O)c2ccccc21)N(Cc1ccc(-c2ccc(C(F)(F)F)cc2)cc1)C1CCN(C2CCSCC2)CC1	860 nM
CC(C)C[C@H](NC(=O)c1ccc(OCCN2CCOCC2)cc1)C(=O)N[C@H](/C=N/NC(=O)c1ccccc1)CCc1ccccc1	60 nM
CCCN1CCN(CCCCNc2c3ccccc3nc3ccccc23)CC1	410 nM
Cc1nc(Nc2ccc(F)cc2)nc(N2CCc3ccccc3C2C)c1CO (stereo not given)	740 nM
O=C(Nc1ccc(Cl)cc1)Nc1ccc(-c2cccc(-c3nc4ccccc4[nH]3)c2)cc1	160 nM
COc1ccc2nccc([C@@H](O)CN3CCC(NC(=O)C(c4cc5ccccc5o4)N4CCN(c5ccccc5)CC4)CC3)c2c1 (stereo not given in full)	240 nM
COc1cc(NC(=O)c2sc(-c3ccc(Cl)cc3)cc2NC(=O)c2cccnc2)ccc1OCCN1CCCC1	380 nM
FC(F)(F)c1cccc2c(NN=Cc3ccccc3)ccnc12	620 nM
COc1ccccc1CCNc1nccc(N[C@@H](Cc2ccccc2)C(=O)NCc2cccs2)n1	870 nM
CCOC(=O)[C@H](Cc1cc([N+](=O)[O-])c(Oc2ccc(OC)c(Cc3ccc(OC)c(C(C)C)c3)c2)c([N+](=O)[O-])c1)NC(=O)C(F)(F)F	980 nM
COCCN1CCN(Cc2ccc(-c3ccc(-c4nc5ccc(F)cc5[nH]4)cc3)cc2)CC1	720 nM
CCN(CC)CCN(CCN(CC)CC)c1ccc(-c2nc3cc(Cl)c(Cl)cc3[nH]2)cc1	780 nM
COc1cccc(CN2CCCC(OC(c3ccc(F)cc3)c3ccc(F)cc3)C2)c1O (stereo not given)	790 nM
Cc1cc(NN=Cc2ccc(Cl)cc2)c2ccc(F)cc2n1	760 nM
O=C(Nc1cccc(CN2CCCN(CC3CCCCC3)CC2)c1)c1cc2ccccc2s1	810 nM

Structure (SMILES)	IC50
CCN1CCN(Cc2ccc(-c3ccc(NS(=O)(=O)c4cccc5cccnc45)cc3)cc2)CC1	920 nM
O=C(Nc1ccc2c(c1)OCO2)NC1CCN(c2ccnc(NCc3ccc(F)cc3)n2)CC1	940 nM
CN1CCN(C(C(=O)NCc2cc(Cl)cc(Cl)c2)c2ccccc2-c2ccsc2)CC1 (stereo not given)	940 nM
Cc1ccc(NC(=O)c2cccc(N3CCN(c4ccncc4)CC3)c2)cc1F	1300 nM
O=C(NCCc1ccccc1)N(Cc1cccc(-c2ccc(CNCc3ccc4c(c3)OCO4)cc2)c1)C1CCN(Cc2ccccc2)CC1	660 nM
CCN(CCCN1CCCCC1)c1cc(C)nc(Nc2ccc(C)cc2)n1	410 nM
CCCCCCCCNCC(O)c1cc(-c2ccc(Cl)cc2)nc2cc(C)ccc12 (stereo not given)	80 nM
CCN(CC)CCCC(C)Nc1cc(C=Cc2ccccc2Cl)nc2cc(Cl)ccc12 (stereo not given)	800 nM
CN(C)CCCN1CCN(Cc2ccc(-c3ccc(-c4nc5ccccc5[nH]4)s3)cc2)CC1	820 nM
COc1ccccc1Cc1nc2ccccc2nc1SCC(=O)Nc1cccc(C(F)(F)F)c1	500 nM
CC(=O)Nc1ccc(C(=O)Nc2cccc(-c3ccc(-c4nc5ccccc5[nH]4)s3)c2)cn1	180 nM
O=C(Nc1ccc(Oc2ccccc2)cc1)N(Cc1ccc(-c2ccc(CN3CCNCC3)cc2)cc1)C1CCN(Cc2ccccc2)CC1	890 nM
COc1ccc(Cc2cnc(N)nc2N)cc1OCCCOc1ccccc1	910 nM
CN1CCN(CC(=O)Nc2ccc(-c3ccc(-c4nc5ccc(C(F)(F)F)cc5[nH]4)cc3)cc2)CC1	420 nM
O=C(/C=C/c1ccccc1O)NC1CCC(CN2CCC(c3c[nH]c4ccccc34)CC2)CC1 (stereo not given)	760 nM and 460 nM
Cc1c(C)c2c(c(C)c1O)CC[C@](C)(C(=O)N1CCC(CCN3CCC(c4c[nH]c5ccccc45)CC3)CC1)O2	830 nM
Cc1nn(-c2ccnc3cc(Cl)ccc23)c(C)c1C(=O)NCc1cc(Cl)cc(Cl)c1	870 nM
CCNc1cc(C(=O)N[C@@H](Cc2ccccc2Cl)[C@H](O)CNC(C)CCCC(C)C)cc(N2CCCCS2(=O)=O)c1 (stereo not given in full)	930 nM
CN1CCN(CCCN(Cc2cccc(-c3ccc(CNCCc4ccccc4)cc3)c2)C(=O)Nc2ccccc2)CC1	830 nM
CCCCc1cc(N2CCC(NC(C)=O)C2)nc(Nc2ccc(C)cc2)n1 (stereo not given)	870 nM
CC(C)(C)c1ccc(/C=C/C(=O)NCCCCCN2CCC(c3c[nH]c4ccccc34)CC2)cc1	1090 nM
CCC[C@]1(C)CSc2ccccc2[C@@H](c2ccccc2)N1	710 nM
Nc1ncc(-c2ccsc2)c2ccc(-c3ccc4cn[nH]c4c3)cc12	810 nM
